Six compounds from patent publication US20130109682A1, “CYCLIC ETHER COMPOUNDS USEFUL AS KINASE INHIBITORS” (NOVARTIS AG, priority 2010, published 2013) can be followed below.

What all share (format): biochemical
For test [1], the target named is FGFR3 kinase (Homo sapiens, UniProt P22607). Description: FGFR3 kinase inhibition assay (LanthaScreen TR-FRET). Background: In TR-FRET formats the signal depends on donor and acceptor labels being close together.
Test [2] concerns the target PKCα (Homo sapiens, UniProt P17252). Nature of the test: PKCα kinase Caliper assay. The settings on record: PKCα Caliper assay; read-out: PKC IC50. The procedure, abridged: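 Eight-point compound dilutions incubated with PKCα and peptide/ATP for 60 min at 30° C in 50 mM HEPES pH 7.5, 1 mM DTT, 0.02% Tween20, 0.02% BSA, 0.6% DMSO. Activity from phospho-peptide formed, separated by microfluidic mobility shift.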

The target in test [3] is PDGFRaV561D kinase (Homo sapiens, UniProt P16234, V561D). Nature of the test: PDGFRaV561D kinase inhibition assay (LanthaScreen TR-FRET). The settings on record: read-out: PDGFRa IC50. The procedure, abridged: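 TR-FRET end-point assay with 4.4 nM PDGFRa V561D kinase, 50 nM polyEAY, 10 mM Mn and 2 μM ATP (f.c.) in Tris pH 7.4 buffer. After 1 h, EDTA stop and Tb-labeled P-20 antibody added; read after 45 min in the dark.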

For test [4], the target named is PIM2 (Homo sapiens, UniProt Q9P1W9). Description: Pim 2 AlphaScreen assay (high ATP). The settings on record: read-out: Pim2 IC50. The procedure, abridged: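 IC50 values rest on detection of phosphorylated Bad peptide: after a ~2 h kinase reaction, an EDTA stop buffer containing anti-phospho Ser/Thr antibody, Protein A and streptavidin AlphaScreen beads was added and read after overnight dark incubation. ATP was high (11-125× Km), with 2.5% DMSO in pH 7.5 Hepes buffer containing MgCl2, BSA, Tween-20 and DTT.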
(In Alpha technology, singlet oxygen from a donor bead excites a nearby acceptor bead.)

pIC50: −log10 of the molar value.

Sequence of PIM2 (Q9P1W9 whole entry): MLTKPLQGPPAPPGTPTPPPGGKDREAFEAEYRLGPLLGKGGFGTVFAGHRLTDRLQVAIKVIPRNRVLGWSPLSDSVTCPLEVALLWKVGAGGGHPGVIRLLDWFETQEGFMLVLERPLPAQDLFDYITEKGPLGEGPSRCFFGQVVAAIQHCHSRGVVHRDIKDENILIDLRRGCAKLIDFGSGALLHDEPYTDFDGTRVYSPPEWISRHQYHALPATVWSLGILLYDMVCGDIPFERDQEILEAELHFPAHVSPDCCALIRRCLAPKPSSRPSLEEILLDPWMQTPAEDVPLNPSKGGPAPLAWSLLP
Sequence of FGFR3 kinase (P22607 23-806): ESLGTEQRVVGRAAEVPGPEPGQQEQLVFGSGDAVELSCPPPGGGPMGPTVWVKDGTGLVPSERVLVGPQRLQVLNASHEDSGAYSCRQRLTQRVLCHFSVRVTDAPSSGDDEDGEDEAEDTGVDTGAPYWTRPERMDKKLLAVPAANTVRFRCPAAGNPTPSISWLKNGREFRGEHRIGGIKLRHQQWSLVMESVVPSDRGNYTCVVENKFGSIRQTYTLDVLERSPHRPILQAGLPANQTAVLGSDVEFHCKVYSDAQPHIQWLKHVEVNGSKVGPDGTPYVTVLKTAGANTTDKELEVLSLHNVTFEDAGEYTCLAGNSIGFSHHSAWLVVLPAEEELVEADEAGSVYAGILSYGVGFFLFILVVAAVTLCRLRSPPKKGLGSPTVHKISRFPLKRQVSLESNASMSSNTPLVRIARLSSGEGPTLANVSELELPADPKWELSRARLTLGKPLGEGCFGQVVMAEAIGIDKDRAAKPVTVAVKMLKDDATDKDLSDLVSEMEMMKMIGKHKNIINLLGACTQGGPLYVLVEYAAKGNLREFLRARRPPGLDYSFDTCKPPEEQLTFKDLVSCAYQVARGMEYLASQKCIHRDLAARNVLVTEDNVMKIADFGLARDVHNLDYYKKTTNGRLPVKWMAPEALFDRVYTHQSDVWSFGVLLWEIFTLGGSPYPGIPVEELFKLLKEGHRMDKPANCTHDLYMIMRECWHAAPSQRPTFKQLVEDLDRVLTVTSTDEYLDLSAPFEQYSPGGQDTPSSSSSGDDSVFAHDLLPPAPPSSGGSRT
Sequence of PDGFRaV561D kinase (P16234 24-1089 V561D): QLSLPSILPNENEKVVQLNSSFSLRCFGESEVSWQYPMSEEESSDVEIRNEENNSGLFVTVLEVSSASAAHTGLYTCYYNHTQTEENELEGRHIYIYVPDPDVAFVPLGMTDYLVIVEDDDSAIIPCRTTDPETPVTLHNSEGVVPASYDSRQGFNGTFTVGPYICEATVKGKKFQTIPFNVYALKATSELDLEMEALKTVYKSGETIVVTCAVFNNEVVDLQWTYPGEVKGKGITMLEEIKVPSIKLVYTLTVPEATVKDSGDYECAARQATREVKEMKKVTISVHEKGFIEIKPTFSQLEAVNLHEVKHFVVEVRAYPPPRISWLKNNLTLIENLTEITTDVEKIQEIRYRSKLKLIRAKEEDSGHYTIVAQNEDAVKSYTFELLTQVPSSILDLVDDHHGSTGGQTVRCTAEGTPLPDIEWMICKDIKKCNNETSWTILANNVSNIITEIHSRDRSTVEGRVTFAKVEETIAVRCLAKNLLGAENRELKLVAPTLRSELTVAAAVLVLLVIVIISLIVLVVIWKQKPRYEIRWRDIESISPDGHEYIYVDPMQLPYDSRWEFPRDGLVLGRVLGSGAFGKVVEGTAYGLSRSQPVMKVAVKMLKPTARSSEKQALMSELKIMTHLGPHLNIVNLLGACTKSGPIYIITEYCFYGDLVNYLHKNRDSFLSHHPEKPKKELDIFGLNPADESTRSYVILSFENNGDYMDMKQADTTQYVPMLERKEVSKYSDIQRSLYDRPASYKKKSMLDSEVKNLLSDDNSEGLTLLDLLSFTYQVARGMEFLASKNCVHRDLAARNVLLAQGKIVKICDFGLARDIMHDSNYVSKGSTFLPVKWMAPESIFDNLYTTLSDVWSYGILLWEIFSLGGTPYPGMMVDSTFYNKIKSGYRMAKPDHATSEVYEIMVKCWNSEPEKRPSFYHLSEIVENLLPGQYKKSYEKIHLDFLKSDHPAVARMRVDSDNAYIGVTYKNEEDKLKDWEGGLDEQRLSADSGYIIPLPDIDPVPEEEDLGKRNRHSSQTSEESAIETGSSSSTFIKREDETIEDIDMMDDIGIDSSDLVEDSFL

Broadly, the pIC50 is the negative decadic logarithm of the IC50, by convention in mol/L. Regarding `C[C@@]1(O)[C@@H](N)C[C@@H](c2ccncc2NC(=O)c2nc(-c3ccccc3)cnc2N)O[C@H]1C1CC1` [Example 347, 3-amino-N-(4-((2S,4S,5R,6S)-4-amino-6-cyclopropyl-5-hydroxy-5-methyltetrahydro-2H-pyran-2-yl)pyridin-3-yl)-6-phenylpyrazine-2-carboxamide], the negative-log IC50 (pIC50) in test [1] was 5.06; in test [2], 6.00; in test [3], 5.05; in test [4], 5.10.
On the same counts, the results for `CC[C@H]1O[C@@H](c2ccncc2NC(=O)c2nc(-c3ccccc3)cnc2N)C[C@@H](N)[C@]1(C)O` [Example 348, 3-amino-N-(4-((2R,4R,5S,6R)-4-amino-6-ethyl-5-hydroxy-5-methyltetrahydro-2H-pyran-2-yl)pyridin-3-yl)-6-phenylpyrazine-2-carboxamide] are 6.38, 6.66, 6.82 and 6.84.
On the same counts, the results for `Nc1ncc(-c2ccccc2)nc1C(=O)Nc1cnccc1[C@@H]1C[C@H](N)[C@@H](O)[C@H](C2CC2)O1` [Example 349, 3-amino-N-(4-((2S,4S,5R,6S)-4-amino-6-cyclopropyl-5-hydroxytetrahydro-2H-pyran-2-yl)pyridin-3-yl)-6-phenylpyrazine-2-carboxamide] are 5.16, 6.85, 5.48 and 5.56.
With `CC(C)(C)[C@H]1O[C@@H](c2ccncc2NC(=O)c2nc(-c3ccccc3)cnc2N)C[C@@H](N)[C@@H]1O` [Example 354, 3-amino-N-(4-((2R,4R,5S,6R)-4-amino-6-tert-butyl-5-hydroxytetrahydro-2H-pyran-2-yl)pyridin-3-yl)-6-phenylpyrazine-2-carboxamide], the pIC50 in test [1] is 6.06; in test [2], 7.66; in test [3], 7.59; in test [4] it was 8.05.
On the same counts, the results for `CC(C)(C)[C@@H]1O[C@H](c2ccncc2NC(=O)c2nc(-c3ccccc3)cnc2N)C[C@H](N)[C@H]1O` [Example 355, 3-amino-N-(4-((2S,4S,5R,6S)-4-amino-6-tert-butyl-5-hydroxytetrahydro-2H-pyran-2-yl)pyridin-3-yl)-6-phenylpyrazine-2-carboxamide] are under 5.00, 6.08, 5.04 and 5.06.
In the case of `CC(C)[C@H]1O[C@@H](c2ccncc2NC(=O)c2nc(-c3ccccc3)cnc2N)C[C@@H](N)[C@@H]1O` [Example 356, 3-amino-N-(4-((2R,4R,5S,6R)-4-amino-5-hydroxy-6-isopropyltetrahydro-2H-pyran-2-yl)pyridin-3-yl)-6-phenylpyrazine-2-carboxamide], the pIC50 in test [1] is 6.66; in test [2], 7.12; in test [3], 7.28; in test [4], 7.55.
